Reference: patent publication US20250145633A1, “SUBSTITUTED FURANOPYRIMIDINE COMPOUNDS AS PDE1 INHIBITORS” (Dart NeuroScience, LLC, priority 2017, published 2025)

Biological target: human PDE1B enzyme (Homo sapiens (Human), UniProt Q01064)
Test: IMAP TR-FRET PDE1B enzymatic assay
Type: biochemical
Settings: negative log of half-maximal molar inhibitory concentration, 200 nM FAM-cAMP, values given as bins; for IC50: read-out: PDE1b (pIC50) (converted)
Procedure, shortened: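 Full-length GST-tagged human PDE1B (250 pg/well) in IMAP BSA buffer with 10 U/ml calmodulin and 2.5 mM CaCl2; compound pre-incubated 5 min at room temperature, then 200 nM (final) FAM-cAMP for 30 min. IMAP binding reagent/Tb added, 1 h; TR-FRET 520/490 ratio read. IC50 from sigmoidal dose-response fit.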

For `COc1cnc(CNC(=O)c2c(C)oc3ncnc(NC4(C)CC4)c23)cn1` [Example 731, N-[(5-Methoxypyrazin-2-yl)methyl]-6-methyl-4-[(1-methylcyclopropyl)amino]furo[2,3-d]pyrimidine-5-carboxamide], the IC50 was 10 to 100 nM.
Compound `Cc1oc2ncnc(NC3(C)CC3)c2c1C(=O)NCc1cnc(C2CC2)cn1` [Example 732, N-[(5-Cyclopropylpyrazin-2-yl)methyl]-6-methyl-4-[(1-methylcyclopropyl)amino]furo[2,3-d]pyrimidine-5-carboxamide] has an IC50 of 10 to 100 nM.
`Cc1oc2ncnc(NC3(C)CC3)c2c1C(=O)NCc1nc2cc(F)ccc2n1C` [Example 733, N-[(5-Fluoro-1-methyl-1H-1,3-benzodiazol-2-yl)methyl]-6-methyl-4-[(1-methylcyclopropyl)amino]furo[2,3-d]pyrimidine-5-carboxamide] gave an IC50 of 10 to 100 nM.
Compound `Cc1oc2ncnc(NC3(C)CC3)c2c1C(=O)NCCc1nc2cc(F)ccc2n1C` [Example 734, N-[2-(5-Fluoro-1-methyl-1H-1,3-benzodiazol-2-yl)ethyl]-6-methyl-4-[(1-methylcyclopropyl)amino]furo[2,3-d]pyrimidine-5-carboxamide] has an IC50 of 10 to 100 nM.
`Cc1oc2ncnc(NC3(C)CC3)c2c1C(=O)Nc1ccc(C2CCOCC2)nc1` [Example 735, 6-Methyl-4-[(1-methylcyclopropyl)amino]-N-[6-(oxan-4-yl)pyridin-3-yl]furo[2,3-d]pyrimidine-5-carboxamide] showed an IC50 of 100 to 1000 nM.
`Cc1oc2ncnc(NC3(C)CC3)c2c1C(=O)Nc1cnc(C2CCOCC2)cn1` [Example 736, 6-Methyl-4-[(1-methylcyclopropyl)amino]-N-[5-(oxan-4-yl)pyrazin-2-yl]furo[2,3-d]pyrimidine-5-carboxamide] showed an IC50 of 10 to 100 nM.
Work on `Cc1oc2ncnc(NC3(C)CC3)c2c1C(=O)NCc1cccc(N2CCOCC2)n1` [Example 737, 6-Methyl-4-[(1-methylcyclopropyl)amino]-N-{[6-(morpholin-4-yl)pyridin-2-yl]methyl}furo[2,3-d]pyrimidine-5-carboxamide] yielded an IC50 of 10 to 100 nM.
For `Cc1oc2ncnc(NC3(C)CC3)c2c1C(=O)NCc1nnn(C)n1` [Example 738, 6-Methyl-N-[(2-methyl-2H-1,2,3,4-tetrazol-5-yl)methyl]-4-[(1-methylcyclopropyl)amino]furo[2,3-d]pyrimidine-5-carboxamide], the IC50 was 10 to 100 nM.
With `Cc1oc2ncnc(NC3(C)CC3)c2c1C(=O)NCc1csc(N2CCOCC2)n1` [Example 739, 6-Methyl-4-[(1-methylcyclopropyl)amino]-N-{[2-(morpholin-4-yl)-1,3-thiazol-4-yl]methyl}furo[2,3-d]pyrimidine-5-carboxamide] the IC50 was 10 to 100 nM.
`Cc1oc2ncnc(NC3(C)CC3)c2c1C(=O)NCc1cnn(C)n1` [Example 740, 6-Methyl-N-[(2-methyl-2H-1,2,3-triazol-4-yl)methyl]-4-[(1-methylcyclopropyl)amino]furo[2,3-d]pyrimidine-5-carboxamide] gave an IC50 of 10 to 100 nM.
`Cc1oc2ncnc(NC3(C)CC3)c2c1C(=O)NCc1ncn(C)n1` [Example 741, 6-Methyl-N-[(1-methyl-1H-1,2,4-triazol-3-yl)methyl]-4-[(1-methylcyclopropyl)amino]furo[2,3-d]pyrimidine-5-carboxamide] was tested, and the IC50 was 10 to 100 nM.
With `Cc1oc2ncnc(NC3(C)CC3)c2c1C(=O)N1Cc2cc(Br)cnc2C1` [Example 742, 5-{3-Bromo-5H,6H,7H-pyrrolo[3,4-b]pyridine-6-carbonyl}-6-methyl-N-(1-methylcyclopropyl)furo[2,3-d]pyrimidin-4-amine] the IC50 was 10 to 100 nM.
In the case of `Cc1ncc(CNC(=O)c2c(C)oc3ncnc(NC4(C)CC4)c23)s1` [Example 743, 6-Methyl-N-[(2-methyl-1,3-thiazol-5-yl)methyl]-4-[(1-methylcyclopropyl)amino]furo[2,3-d]pyrimidine-5-carboxamide], the “PDE1b (pIC50)” value is reported as greater than 8.
In the case of `Cc1ncc(CNC(=O)c2c(C)oc3ncnc(NC4(C)CC4)c23)o1` [Example 744, 6-Methyl-N-[(2-methyl-1,3-oxazol-5-yl)methyl]-4-[(1-methylcyclopropyl)amino]furo[2,3-d]pyrimidine-5-carboxamide], the IC50 is reported as 10 to 100 nM.
In the case of `Cc1oc2ncnc(NC3(C)CC3)c2c1C(=O)NCc1ccc(N2CCOCC2)nn1` [Example 745, 6-Methyl-4-[(1-methylcyclopropyl)amino]-N-{[6-(morpholin-4-yl)pyridazin-3-yl]methyl}furo[2,3-d]pyrimidine-5-carboxamide], the IC50 is reported as 10 to 100 nM.
For `Cc1oc2ncnc(NC3(C)CC3)c2c1C(=O)NCC1CC1` [Example 746, N-(Cyclopropylmethyl)-6-methyl-4-[(1-methylcyclopropyl)amino]furo[2,3-d]pyrimidine-5-carboxamide], the IC50 was 10 to 100 nM.
Work on `Cc1nc(CNC(=O)c2c(C)oc3ncnc(NC4(C)CC4)c23)co1` [Example 747, 6-Methyl-N-[(2-methyl-1,3-oxazol-4-yl)methyl]-4-[(1-methylcyclopropyl)amino]furo[2,3-d]pyrimidine-5-carboxamide] yielded an IC50 of 10 to 100 nM.
With `Cc1oc2ncnc(NC3(C)CC3)c2c1C(=O)N1Cc2cc(C3CCOCC3)cnc2C1` [Example 748, 6-Methyl-N-(1-methylcyclopropyl)-5-[3-(oxan-4-yl)-5H,6H,7H-pyrrolo[3,4-b]pyridine-6-carbonyl]furo[2,3-d]pyrimidin-4-amine] the IC50 was 100 to 1000 nM.
Work on `Cc1oc2ncnc(NC3(C)CC3)c2c1C(=O)NC(C)c1ncco1` (stereo not drawn) [Example 749, 6-Methyl-4-[(1-methylcyclopropyl)amino]-N-[1-(1,3-oxazol-2-yl)ethyl]furo[2,3-d]pyrimidine-5-carboxamide] yielded an IC50 of 100 to 1000 nM.
`Cc1oc2ncnc(NC3(C)CC3)c2c1C(=O)NC(C)c1ccon1` (stereo not drawn) [Example 750, 6-Methyl-4-[(1-methylcyclopropyl)amino]-N-[1-(1,2-oxazol-3-yl)ethyl]furo[2,3-d]pyrimidine-5-carboxamide] gave an IC50 of 10 to 100 nM.
For `Cc1oc2ncnc(NC3(C)CC3)c2c1C(=O)NCc1nc2cc(F)ccc2o1` [Example 751, N-[(5-Fluoro-1,3-benzoxazol-2-yl)methyl]-6-methyl-4-[(1-methylcyclopropyl)amino]furo[2,3-d]pyrimidine-5-carboxamide], the “PDE1b (pIC50)” value was greater than 8.
For `Cc1oc2ncnc(NC3(C)CC3)c2c1C(=O)NCCCN1CCCC1` [Example 752, 6-Methyl-4-[(1-methylcyclopropyl)amino]-N-[3-(pyrrolidin-1-yl)propyl]furo[2,3-d]pyrimidine-5-carboxamide], the “PDE1b (pIC50)” value was less than 6.
`Cc1oc2ncnc(NC3(C)CC3)c2c1C(=O)Nc1ccc(N2CCOCC2)nc1` [Example 753, 6-Methyl-4-[(1-methylcyclopropyl)amino]-N-[6-(morpholin-4-yl)pyridin-3-yl]furo[2,3-d]pyrimidine-5-carboxamide] gave an IC50 of 100 to 1000 nM.
With `Cc1oc2ncnc(NC3(C)CC3)c2c1C(=O)NCCC(F)(F)F` [Example 754, 6-Methyl-4-[(1-methylcyclopropyl)amino]-N-(3,3,3-trifluoropropyl)furo[2,3-d]pyrimidine-5-carboxamide] the IC50 was 10 to 100 nM.
Compound `Cc1oc2ncnc(NC3(C)CC3)c2c1C(=O)NCC1CC1(F)F` (stereo not drawn) [Example 755, N-[(2,2-Difluorocyclopropyl)methyl]-6-methyl-4-[(1-methylcyclopropyl)amino]furo[2,3-d]pyrimidine-5-carboxamide] has an IC50 of 10 to 100 nM.
Compound `Cc1oc2ncnc(NC3(C)CC3)c2c1C(=O)NCCN=S(C)(C)=O` [Example 756, N-(2-{[Dimethyl(oxo)-λ^6-sulfanylidene]amino}ethyl)-6-methyl-4-[(1-methylcyclopropyl)amino]furo[2,3-d]pyrimidine-5-carboxamide] has an IC50 of 100 to 1000 nM.
`Cc1oc2ncnc(NC3(C)CC3)c2c1C(=O)Nc1cnc(N2C[C@@H](C)O[C@@H](C)C2)nc1` [Example 759, N-{2-[(2R,6S)-2,6-Dimethylmorpholin-4-yl]pyrimidin-5-yl}-6-methyl-4-[(1-methylcyclopropyl)amino]furo[2,3-d]pyrimidine-5-carboxamide] showed an IC50 of 100 to 1000 nM.
`Cc1coc(CNC(=O)c2c(C)oc3ncnc(NC4(C)CC4)c23)n1` [Example 760, 6-Methyl-N-[(4-methyl-1,3-oxazol-2-yl)methyl]-4-[(1-methylcyclopropyl)amino]furo[2,3-d]pyrimidin-5-carboxamide] was tested, and the IC50 was 10 to 100 nM.
Compound `Cc1oc2ncnc(NC3(C)CC3)c2c1C(N)=O` [Example 761, 6-Methyl-4-[(1-methylcyclopropyl)amino]furo[2,3-d]pyrimidin-5-carboxamide] has an IC50 of 100 to 1000 nM.
In the case of `Cc1oc2ncnc(NC3(C)CC3)c2c1C(=O)N1CCc2c(ncnc2NC(C)C)C1` [Example 762, 6-Methyl-N-(1-methylcyclopropyl)-5-f{4-[(propan-2-yl)amino]-5H,6H,7H,8H-pyrido[3,4-d]pyrimidine-7-carbonyl}furo[2,3-d]pyrimidin-4-amine], the “PDE1b (pIC50)” value is reported as greater than 8.
In the case of `Cc1oc2ncnc(NC3(C)CC3)c2c1C(=O)N1CCc2c(OCF)ccnc2C1` [Example 763, 5-[4-(Fluoromethoxy)-5,6,7,8-tetrahydro-1,7-naphthyridine-7-carbonyl]-6-methyl-N-(1-methylcyclopropyl)furo[2,3-d]pyrimidin-4-amine], the “PDE1b (pIC50)” value is reported as greater than 8.
`Cc1oc2ncnc(NC3(C)CC3)c2c1C(=O)N1CCc2c(cccc2OCF)C1` [Example 764, 5-[5-(Fluoromethoxy)-1,2,3,4-tetrahydroisoquinoline-2-carbonyl]-6-methyl-N-(1-methylcyclopropyl)furo[2,3-d]pyrimidin-4-amine] was tested, and the “PDE1b (pIC50)” value was greater than 8.
`Cc1oc2ncnc(NC3(C)CC3)c2c1C(=O)N1CCc2cc(OCF)ccc2C1` [Example 765, 5-[6-(Fluoromethoxy)-1,2,3,4-tetrahydroisoquinoline-2-carbonyl]-6-methyl-N-(1-methylcyclopropyl)furo[2,3-d]pyrimidin-4-amine] was tested, and the “PDE1b (pIC50)” value was greater than 8.
